Test results as given in patent US4550186A, “Binuclear copper (II) carboxylates formed from amine-carboxyboranes” (Duke University, priority 1983, dated 1985).

Key:
thymidylate synthetase = thymidylate synthetase (Mus musculus, UniProt P07607); experiment: In vivo thymidylate synthetase activity
Method: (§1) CF1 male mice (~30 g) were implanted with 2×10^6 Ehrlich ascites tumor cells, intraperitoneally on Day 0. Compound I was suspended by homogenation in 0.05% polysorbate.80-water and administered intraperitoneally at 10 and 20 mg/kg for 9 days to determine its effectiveness for inhibition of tumor growth. Mice were sacrificed on Day 10, and the ascites fluid was collected from the peritoneal cavity. The volume and ascrit (packed cell volume) were determined for each animal and the percent inhibition of tumor growth was calculated. For the metabolic studies, mice were treated on Days 8 and 9 with 10 mg/kg of Compound I, intraperitoneally. […]
(§2) Carbamyl phosphate synthetase activity was determined using the reaction medium of Kalman et al [Am. […] Citrulline formed from ornithine was measured at 490 nm by the method of Archibald [J. Biol. Chem., 156, 121 (1944)]. […] The ^14 CO2 generated in 15 min was trapped in 1M KOH and counted. Thymidylate synthetase activity was determined using a post-mitochondrial supernatant (9000 g×10 min) and 5 μCi of 5-^3 H-deoxyuridine monophosphate (14 Ci/mmol) according to the method of Kampf et al [ J. Med. Chem., 19, 903 (1976)]. ^14 C-Formate incorporation into purines was determined by the method of Spassova et al [Biochem. Pharmacol., 25, 923 (1976)] using 0.5 μCi of ^14 C-formic acid (52.0 mCi/mmol). […] The Rf value for xanthine monophosphate was scraped and counted. […]

Holtzman male rats = experiment: 3H-Cholesterol distribution in rats; assay type: in vivo, rat; conditions: for Orally administered 3H-Cholesterol: 14 days 10 mg/Kg/Day, Treated
Method: Holtzman male rats (~350 g) were administered the test agent for 14 days orally. On day 13, 10 μCi of ^3 H-cholesterol (40.7 mCi/mmol) was administered intraperitoneally in mice and orally in rats, and feces were collected for the next 24 hr. Twenty-four hours after cholesterol administration, the major organs were excised and samples of blood, chyme and urine were obtained. Homogenates (10%) were prepared of the tissues which were combusted and counted. Some tissue samples were plated on Whatman #1 filter paper, dried and digested for 24 hr in base at 40° C. and counted. Results were expressed as dpm/mg of wet tissue and dpm/per total organ.

dihydrofolate reductase = molecular target: T1, dihydrofolate reductase (Mus musculus, UniProt P00375); experiment: In vivo dihydrofolate reductase activity
T1 sequence (P00375 1-187): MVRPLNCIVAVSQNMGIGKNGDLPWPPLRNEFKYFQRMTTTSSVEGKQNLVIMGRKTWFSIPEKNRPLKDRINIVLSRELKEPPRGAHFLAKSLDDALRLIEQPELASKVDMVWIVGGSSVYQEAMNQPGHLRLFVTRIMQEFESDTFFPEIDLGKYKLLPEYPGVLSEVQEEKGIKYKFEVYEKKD
Method: as §1, §2

[1] = 10 mg/kg/day I.P. on Days 8 and 9

thymidylate synthetase, sequence (P07607 whole entry): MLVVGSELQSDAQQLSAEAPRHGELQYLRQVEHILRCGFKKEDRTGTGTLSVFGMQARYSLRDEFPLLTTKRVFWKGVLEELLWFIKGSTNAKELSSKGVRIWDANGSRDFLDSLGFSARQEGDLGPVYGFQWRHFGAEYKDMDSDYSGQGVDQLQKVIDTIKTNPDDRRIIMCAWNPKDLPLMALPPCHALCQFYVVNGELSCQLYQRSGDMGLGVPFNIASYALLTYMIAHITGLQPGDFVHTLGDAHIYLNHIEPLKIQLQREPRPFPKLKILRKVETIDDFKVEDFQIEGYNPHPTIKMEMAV

Substance: {Cu[(CH3)3 N.BH2 CO2 ]2.(CH3)3 N.BH2 COOH} [Compound I]
- Thymidylate synthetase activity suppressed (thymidylate synthetase): 5%
- Thymidylate synthetase activity (thymidylate synthetase; [1]): 102 ± 9 % Control
- Orally administered 3H-Cholesterol (Holtzman male rats; rat Brain): 15,783 DPM/Total Organ
- Orally administered 3H-Cholesterol (Holtzman male rats; rat Chyme): 218,742 DPM/Total Organ
- Orally administered 3H-Cholesterol (Holtzman male rats; rat Feces): 294,644 DPM/Total Organ
- Orally administered 3H-Cholesterol (Holtzman male rats; rat Heart): 20,060 DPM/Total Organ
- Orally administered 3H-Cholesterol (Holtzman male rats; rat Kidney): 565 DPM/Total Organ
- Orally administered 3H-Cholesterol (Holtzman male rats; rat Large Intestine): 59,665 DPM/Total Organ
- Orally administered 3H-Cholesterol (Holtzman male rats; rat Liver): 27,695 DPM/Total Organ
- Orally administered 3H-Cholesterol (Holtzman male rats; rat Lung): 17,106 DPM/Total Organ
- Orally administered 3H-Cholesterol (Holtzman male rats; rat Small Intestine): 16,514 DPM/Total Organ
- Orally administered 3H-Cholesterol (Holtzman male rats; rat Spleen): 13,241 DPM/Total Organ
- Orally administered 3H-Cholesterol (Holtzman male rats; rat Stomach): 33,901 DPM/Total Organ
- 3H-cholesterol reduced (dpm/organ vs control) (Holtzman male rats; rat brain): 46%
- higher content of cholesterol (Holtzman male rats; rat chyme): 113%
- 3H-cholesterol reduced (dpm/organ vs control) (Holtzman male rats; rat heart): 18%
- 3H-cholesterol reduced (dpm/organ vs control) (Holtzman male rats; rat kidney): 91%
- higher content of cholesterol (Holtzman male rats; rat large intestine): 27%
- 3H-cholesterol reduced (dpm/organ vs control) (Holtzman male rats; rat liver): 42%
- higher content of cholesterol (Holtzman male rats; rat small intestine): 81%
- higher content of cholesterol (Holtzman male rats; rat stomach): 198%
- higher content of cholesterol (Holtzman male rats; rat urine): 336%
- Dihydrofolate reductase activity inhibited (dihydrofolate reductase): 25%
- Dihydrofolate reductase activity (dihydrofolate reductase; [1]): 75 ± 6 % Control
